Results reported in ChEMBL document CHEMBL2417364, “Acetylated dammarane-type bisdesmosides from Combretum inflatum” (J Nat Prod, 2013).

Tests used:
Escherichia coli = experiment: Inhibition of biofilm formation in Escherichia coli UTI89 after 72 hrs by crystal violet staining; format: functional, organism-based; conditions: UTI89, 72 h
Staphylococcus aureus = experiment: Antibacterial activity against methicillin-resistant Staphylococcus aureus clinical isolate 108 at 16 ug/ml after 24 hrs by broth microdilution method; format: functional
NCI-H460 = experiment: Cytotoxicity against human NCI-H460 cells after 72 hrs; format: functional, cell-based; conditions: NCI-H460, 72 h

Structure (SMILES) | IC50 (Escherichia coli) [µg/mL] | Activity (Staphylococcus aureus) [%] | IC50 (NCI-H460) [µM]
CC(=O)O[C@@H]1[C@H](O[C@@H]2O[C@H](C)[C@H](O)[C@H](O)[C@H]2O)C[C@]2(C)[C@H]3[C@H](O[C@@H]4O[C@H](C)[C@H](O)[C@H](O)[C@H]4O)C[C@@H]4[C@@H]([C@](C)(O)CCCC(C)(C)O)CC[C@@]4(C)[C@]3(C)CC[C@H]2C1(C)C | ≥ 30 | – | –
CC(=O)O[C@@H]1[C@H](O[C@@H]2O[C@H](C)[C@@H](O)[C@H](O)[C@H]2O)C[C@]2(C)[C@H]3[C@H](O[C@@H]4O[C@H](C)[C@H](O)[C@H](O)[C@H]4O)C[C@@H]4[C@@H]([C@](C)(O)CCCC(C)(C)O)CC[C@@]4(C)[C@]3(C)CC[C@H]2C1(C)C | ≥ 30 | – | –
CC(=O)O[C@@H]1[C@H](O[C@@H]2O[C@H](C)[C@H](O)[C@H](O)[C@H]2O)C[C@]2(C)[C@H]3[C@H](O[C@@H]4O[C@H](C)[C@H](O)[C@H](O)[C@H]4O)C[C@@H]4[C@@H](/C(C)=C/CCC(C)(C)O)CC[C@@]4(C)[C@]3(C)CC[C@H]2C1(C)C | ≥ 30 | 71 | –
CC(=O)O[C@@H]1[C@H](O[C@@H]2O[C@H](C)[C@@H](O)[C@H](O)[C@H]2O)C[C@]2(C)[C@H]3[C@H](O[C@@H]4O[C@H](C)[C@H](O)[C@H](O)[C@H]4O)C[C@@H]4[C@@H](/C(C)=C/CCC(C)(C)O)CC[C@@]4(C)[C@]3(C)CC[C@H]2C1(C)C | ≥ 30 | 64 | –
CC(=O)O[C@@H]1[C@H](O[C@@H]2O[C@H](C)[C@H](O)[C@H](O)[C@H]2O)C[C@]2(C)[C@H]3[C@H](O[C@@H]4O[C@H](C)[C@H](O)[C@H](O)[C@H]4O)C[C@@H]4[C@@H]([C@](C)(O)CCC=C(C)C)CC[C@@]4(C)[C@]3(C)CC[C@H]2C1(C)C | ≥ 30 | 45 | –
CC(=O)O[C@@H]1[C@H](O[C@@H]2O[C@H](C)[C@@H](O)[C@H](O)[C@H]2O)C[C@]2(C)[C@H]3[C@H](O[C@@H]4O[C@H](C)[C@H](O)[C@H](O)[C@H]4O)C[C@@H]4[C@@H]([C@](C)(O)CCC=C(C)C)CC[C@@]4(C)[C@]3(C)CC[C@H]2C1(C)C | ≥ 30 | 51 | –
CC(=O)O[C@@H]1[C@H](O[C@@H]2O[C@H](C)[C@H](O)[C@H](O)[C@H]2O)C[C@]2(C)[C@H]3[C@H](O[C@@H]4O[C@H](C)[C@H](O)[C@H](O)[C@H]4O)C[C@@H]4[C@@H]([C@@](C)(O)CCC=C(C)C)CC[C@@]4(C)[C@]3(C)CC[C@H]2C1(C)C | ≥ 30 | 49 | 3.9
